Converted amounts (≈) assume the structure as drawn. Counter-ions that a name gives are not always drawn.
Legend:
[1] = tested on: Staphylococcus aureus; test: microbe, parasite or virus in culture; settings: ATCC 43300, 18 h, ASSAY_TEST Inhibition of Bacterial Growth, detection method Absorption (OD600), MEDIA CAMHB, plate type 384well, NBS, CORNING #3640
Description: Antibacterial activity against Staphylococcus aureus MRSA ATCC 43300 (CO-ADD:GP_020); MIC in CAMBH media, using NBS plates, by OD(600)

[2] = tested on: Escherichia coli; test: microbe, parasite or virus in culture; settings: ATCC 25922, 18 h, ASSAY_TEST Inhibition of Bacterial Growth, detection method Absorption (OD600), MEDIA CAMHB, plate type 384well, NBS, CORNING #3640
Description: Antibacterial activity against Escherichia coli ATCC 25922 (CO-ADD:GN_001); MIC in CAMBH media using NBS plates, by OD(600)

[3] = tested on: HEK293; test: cells; format: functional; settings: Homo sapiens, ATCC CRL1573, HEK293; ASSAY_TEST Inhibition of Cell Viability; detection method Resazurin; Fluorescence (ex560/em590); MEDIA DMEM with 10% FBS; plate type 384well; TC; CORNING #3712; time 18 hr
[4] = tested on: Klebsiella pneumoniae; test: microbe, parasite or virus in culture; settings: ATCC 700603, 18 h, ASSAY_TEST Inhibition of Bacterial Growth, detection method Absorption (OD600), MEDIA CAMHB, plate type 384well, NBS, CORNING #3640
Description: Antibacterial activity against Klebsiella pneumoniae MDR ATCC 70063 (CO-ADD:GN_003); MIC in CAMBH media using NBS plates, by OD(600)

[5] = tested on: Pseudomonas aeruginosa; test: microbe, parasite or virus in culture; settings: ATCC 27853, 18 h, ASSAY_TEST Inhibition of Bacterial Growth, detection method Absorption (OD600), MEDIA CAMHB, plate type 384well, NBS, CORNING #3640
Description: Antibacterial activity against Pseudomonas aeruginosa ATCC 27853 (CO-ADD:GN_042); MIC in CAMBH media using NBS plates, by OD(600)

[6] = tested on: Cryptococcus neoformans
Description: Antifungal activity against Cryptococcus neoformans H99 ATCC 208821 (CO-ADD:FG_002); MIC in YNB media using NBS plates, by Resazurin OD(600-570)

[7] = tested on: Acinetobacter baumannii; test: microbe, parasite or virus in culture; settings: ATCC 19606, 18 h, ASSAY_TEST Inhibition of Bacterial Growth, detection method Absorption (OD600), MEDIA CAMHB, plate type 384well, NBS, CORNING #3640
Description: Antibacterial activity against Acinetobacter baumannii ATCC 19606 (CO-ADD:GN_034); MIC in CAMBH media using NBS plates, by OD600

[8] = tested on: Candida albicans; test: microbe, parasite or virus in culture; settings: ATCC 90028, ASSAY_TEST Inhibition of Fungal Growth, detection method Absorption (OD530), plate type 384well, NBS, CORNING #3640
Description: Antifungal activity against Candida albicans ATCC 90028 (CO-ADD:FG_001); MIC in YNB media using NBS plates, by OD630

Compound	MIC [1] [µM]	MIC [2] [µM]	CC50 [3] [µM]	MIC [4] [µM]	MIC [5] [µM]	MIC [6] [µM]	MIC [7] [µM]	MIC [8] [µM]
COc1cccc(-n2nnnc2S(C)(=O)=O)c1	> 10	> 10	2.96	> 10	> 10	> 10	> 10	> 10
O=C(Nc1cccnc1)c1c(O)c2cccc3c2n(c1=O)CC3	> 10	> 10	> 10	> 10	> 10	> 10	> 10	> 10
N=C(N)Nc1ccc(-c2ccc(-c3ccc(NC(=N)N)cc3Cl)o2)c(Cl)c1	1.25 (≈ 0.504 µg/mL)	5 (≈ 2.02 µg/mL)	> 10	10 (≈ 4.03 µg/mL)	10 (≈ 4.03 µg/mL)	1.25 (≈ 0.504 µg/mL)	5 (≈ 2.02 µg/mL)	2.5 (≈ 1.01 µg/mL)
Nc1nc2cc(-c3cncc(Oc4ccc(F)cc4)c3)ccc2[nH]1	> 10	> 10	> 10	> 10	> 10	> 10	> 10	> 10
O=C(Nc1ccc(C(F)(F)F)c(C(F)(F)F)c1)c1cc(Cl)ccc1O	> 10	> 10	> 10	> 10	> 10	> 10	> 10	> 10
Cc1cc(NC(=O)c2ccc(Oc3ccc(Cl)cc3O)o2)no1	> 10	> 10	> 10	> 10	> 10	> 10	> 10	> 10
Clc1cccc(C(c2ccc(CN3CCNCC3)cc2)n2ccnc2)c1 (stereo not drawn)	> 10	> 10	> 10	> 10	> 10	> 10	> 10	> 10
CCN(CC)S(=O)(=O)c1ccc(C(=O)Nc2cc(C)nn2-c2nc(C)c(C)c(=O)[nH]2)cc1	> 10	> 10	> 10	> 10	> 10	> 10	> 10	> 10
COc1ccc2nccc(NC(=O)C3CCN(CCc4ccc(Cl)cc4)CC3)c2n1	1.25 (≈ 0.531 µg/mL)	> 10	> 10	> 10	> 10	> 10	> 10	> 10
O=C1O[C@@H](COc2ccon2)CN1c1cc(F)c(C2=CCN(Cc3ccccc3)CC2)c(F)c1	> 10	> 10	> 10	> 10	> 10	> 10	> 10	> 10
CC(=O)NCC1CN(c2ccc(-c3ccc(CO)cc3)c(F)c2)C(=O)O1 (stereo not drawn)	1.25 (≈ 0.448 µg/mL)	> 10	> 10	> 10	> 10	> 10	> 10	> 10
CN1CCN(CCCOc2ncc(Nc3ncc(-c4ccc(C(F)(F)F)c(F)c4)nc3C(N)=O)cn2)CC1	> 10	> 10	> 10	> 10	> 10	> 10	> 10	> 10
Cn1c(=O)c2c(S(C)(=O)=O)snc2n(C)c1=O	> 10	> 10	9.72	> 10	> 10	> 10	> 10	> 10
CC(=O)NCC1CN(c2ccc(-c3ccc(CNCc4cn[nH]n4)cc3)c(F)c2)C(=O)O1 (stereo not drawn)	10 (≈ 4.38 µg/mL)	> 10	> 10	> 10	> 10	> 10	> 10	> 10
N=C(N)Nc1ccc(-c2ccc(-c3ccc(N=C(N)N)c(Cl)c3)o2)cc1Cl	10 (≈ 4.03 µg/mL)	> 10	> 10	> 10	> 10	> 10	> 10	> 10
O=C(Nc1ccc(N2CCNCC2)cc1)c1ccn2ncc(-c3cccc(Cl)c3)c2n1	> 10	> 10	9.02	> 10	> 10	> 10	> 10	> 10

Compound	MIC [1] [µM]	MIC [2] [µM]	CC50 [3] [µM]	MIC [4] [µM]	MIC [5] [µM]	MIC [6] [µM]	MIC [7] [µM]	MIC [8] [µM]
CO[C@H]1/C=C/O[C@@]2(C)Oc3c(C)c(O)c4c(O)c(/c(=C/NN5CCN(C)CC5)c(O)c4c3C2=O)=N\C(=O)/C(C)=C\C=C/[C@H](C)[C@H](O)[C@@H](C)[C@@H](O)[C@@H](C)[C@H](OC(C)=O)[C@@H]1C	≤ 0.0781	10 (≈ 8.23 µg/mL)	> 10	> 10	5 (≈ 4.11 µg/mL)	> 10	> 10	> 10
c1cncc(NCc2ccc(-c3cc4ccncc4cc3OC3CCNCC3)s2)c1	> 10	> 10	> 10	> 10	> 10	> 10	> 10	> 10
Cc1cc(NCCc2ccccc2)nc(NC(=N)Nc2ccc(Cl)cc2)n1	> 10	> 10	> 10	> 10	> 10	> 10	> 10	> 10
c1ccc(-c2nc(NC3CCCCC3)cc(C3CC3)n2)nc1	10 (≈ 2.94 µg/mL)	> 10	> 10	> 10	> 10	> 10	> 10	> 10
FC(F)(F)c1cnc(Sc2nnc(-c3ccncc3)o2)c(Cl)c1	10 (≈ 3.59 µg/mL)	> 10	> 10	> 10	> 10	> 10	> 10	> 10
CC(=O)NC[C@@H]1CN(c2ccc(N3CCOCC3)c(F)c2)C(=O)O1	2.5 (≈ 0.843 µg/mL)	> 10	> 10	> 10	> 10	> 10	> 10	> 10
C[C@@H]1[C@H](O)[C@@H](C)/C=C/C=C/C=C/C=C/C=C/C=C/C=C/[C@H](O[C@@H]2O[C@H](C)[C@@H](O)[C@H](N)[C@@H]2O)C[C@@H]2O[C@](O)(C[C@@H](O)C[C@@H](O)[C@H](O)CC[C@@H](O)C[C@@H](O)CC(=O)O[C@H]1C)C[C@H](O)[C@H]2C(=O)O [AMPHOTERICIN B]	> 10	> 10	> 10	> 10	> 10	> 10	> 10	> 10
CO/C=C(/C(=O)OC)c1ccccc1Oc1cc(Oc2ccccc2C#N)ncn1 [AZOXYSTROBIN]	> 10	> 10	> 10	> 10	> 10	> 10	> 10	0.625 (≈ 0.252 µg/mL)
CC(C)(C)C(O)C(Oc1ccc(-c2ccccc2)cc1)n1cncn1 (stereo not drawn) [BITERTANOL]	> 10	> 10	> 10	> 10	> 10	1.25 (≈ 0.422 µg/mL)	> 10	5 (≈ 1.69 µg/mL)
CC(C)(C)[C@H]1CC[C@H](CC2=C(O)C(=O)c3ccccc3C2=O)CC1 [BUPARVAQUONE]	> 10	> 10	> 10	> 10	> 10	> 10	> 10	> 10
CC1COC(Cn2cncn2)(c2ccc(Oc3ccc(Cl)cc3)cc2Cl)O1 (stereo not drawn) [DIFENOCONAZOLE]	> 10	> 10	> 10	> 10	> 10	0.625 (≈ 0.254 µg/mL)	> 10	0.625 (≈ 0.254 µg/mL)
C[C@H]1c2cccc(O)c2C(=O)C2=C(O)[C@]3(O)C(=O)C(C(N)=O)=C(O)[C@@H](N(C)C)[C@@H]3[C@@H](O)[C@@H]21 [DOXYCYCLINE HYDROCHLORIDE]	0.156	1.25	> 10	> 10	0.156	> 10	> 10	> 10
Oc1c(I)cc(I)c2cccnc12 [IODOQUINOL]	> 10	> 10	> 10	> 10	> 10	> 10	> 10	> 10
COC(=O)Nc1nc2cc(C(=O)c3ccccc3)ccc2[nH]1 [MEBENDAZOLE]	> 10	> 10	> 10	> 10	> 10	> 10	> 10	> 10
CCCCCCCCCCCCCCCCOP(=O)([O-])OCC[N+](C)(C)C [MILTEFOSINE]	> 10	> 10	> 10	> 10	> 10	> 10	> 10	> 10
